We go through 45 compounds from patent US12612412B2, “Antiviral heterocyclic compounds” (Enanta Pharmaceuticals, Inc., priority 2021, dated 2026).

Where only a bound is given, the exact number is not on record here.

One assay deals with genotype A, "Long" strain RSV. Briefly: RSV-A assay (CPE protection in Hep-2 cells, ATPlite readout). The format is cell-based, Human respiratory syncytial virus (HRSV). Conditions: human respiratory syncytial virus, RSV-A Long strain, MOI 0.1, CPE protection, read-out: Human RSV-A (“Long”) EC50. The source says:
Hep-2 cells, (originally derived from tumors grown in irradiated-cortisonised weanling rats that had been injected with epidermoid carcinoma tissue from the larynx of a person, but later found to be indistinguishable from HeLa cells by PCR DNA analysis), were used for the culturing of genotype A, “Long” strain RSV. Flasks were inoculated with RSV and viral stocks were collected once cytopathic effect (CPE) was greater than 90%. Viral stocks in 25% sucrose media were snap frozen using liquid nitrogen to increase viral stability. Viral stock titers were quantified by tissue culture infectious dose 50% (TCID50) using 8,000 cells per well and 3-fold viral dilutions across a 96-well plate, cultured for 4 days. Viral stock titers were also quantified by a plaque forming unit assay, as described elsewhere.
Following extensive parameter testing, the final assay is run as follows: Hep-2 cells are seeded into the inner 60 wells of a 96-well plate at 8,000 cells per well in a volume of 50 μL using Growth Media (DMEM without phenol red, 1% L-Glut, 1% Penn/Strep, 1% nonessential amino acids, 10% heat-inactivated FBS). 2-fold serial dilutions of control and test compounds are added to the wells in duplicate in a total volume of 25 μL. Viral stock is then added to the wells at a multiplicity of infection (MOI) of 0.1 in a volume of 25 μL, bringing the total volume of each well to 100 μL. The MOI is calculated using the PFU/mL, or TCID50 if unavailable. Each 96-well plate has a control column of 6 wells with cells and virus but no compound (negative control, max CPE), a column with cells but no compound or virus (positive control, minimum CPE), and a column with no cells or virus or compound (background plate/reagent control). The control wells with cells but no virus are given an additional 25 μL of growth media containing an equal quantity of sucrose as those wells receiving the viral stock in order to keep consistent in media and volume conditions. The outer wells of the plate are filled with 125 μL of moat media (DMEM, 1% Penn/Strep) to act as a thermal and evaporative moat around the test wells. Following a 5-day incubation period, the plates are read using ATPlite (50 uL added per well), which quantifies the amount of ATP (a measure of cell health) present in each well. Assay plates are read using the Envision luminometer. […] EC50 ranges are as follows: A<0.2 μM; B>0.2 μM.
On the technique in general: In ATP-based viability assays light output follows the ATP content of the culture.
As for `COc1cc(C(=O)NC[C@](O)(c2cc3c(c(-c4cccc(Br)c4F)n2)OC[C@]3(C)C(N)=O)C(F)(F)F)cc2cn(C3CC3)nc12` [Example 1225], the EC50 is less than 200 nM.

For the compound `COc1cc(C(=O)NC[C@](O)(c2cc3c(c(-c4ccc(F)cc4)n2)OC[C@]3(C)C(N)=O)C2CC2)cc2cc(C)nnc12` [Example 1108], the EC50 was less than 200 nM.

Regarding `COc1cc(C(=O)NCC(O)(c2cc3c(c(-c4ccc5c(c4)OC(F)(F)C5(F)F)n2)OC[C@]3(C)C(N)=O)C(F)(F)F)cc2cn(C3CC3)nc12` (stereo partly drawn) [Example 1236], the EC50 was more than 200 nM.

As to `C[C@]1(C(N)=O)COc2c1cc([C@@](O)(CNC(=O)c1cc(OC3CC3)c3nn(C(F)F)cc3c1)C1CC1)nc2-c1cc(Br)c(F)cc1F` [Example 1086], the EC50 is less than 200 nM.

Regarding `COc1cc(C(=O)NC[C@](O)(c2cc3c(c(-c4ccc(F)cc4)n2)OC[C@]3(C)C(=O)NC2CC2)C(F)(F)F)cc2cn(C3CC3)nc12` [Example 1172], the EC50 is less than 200 nM.

Regarding `COc1cc(C(=O)NC[C@](O)(c2cc3c(c(-c4cc(F)ccc4F)n2)OC[C@]3(C)C(N)=O)C2CC2)cc2cn(C3CC3)nc12` [Example 1282], the EC50 is less than 200 nM.

As to `COc1cc(C(=O)NC[C@](O)(c2cc3c(c(-c4ccc(F)cc4)n2)OC[C@]3(C)C(N)=O)C2CC2)cc2cc(C3CC3)nnc12` [Example 1109], the EC50 is less than 200 nM.

`COc1cc(C(=O)NC[C@](O)(c2cc3c(c(-c4cccc(Cl)c4Cl)n2)OC[C@]3(C)C(N)=O)C2CC2)cc2cn(C3CC3)nc12` [Example 1286]: the EC50 is less than 200 nM.

Consider `Cc1cnc2c(OC(F)F)cc(C(=O)NC[C@](O)(c3cc4c(c(-c5ccc(C(F)(F)F)cc5)n3)OC[C@]4(C)C(N)=O)C3CC3)cc2c1` [Example 1209], for which the EC50 was less than 200 nM.

Consider `COc1cc(C(=O)NC[C@](O)(c2cc3c(c(-c4ccc(F)cc4)n2)OC[C@]3(C)C(=O)NC2COC2)C(F)(F)F)cc2cn(C3CC3)nc12` [Example 1174], for which the EC50 was less than 200 nM.

Consider `COc1cc(C(=O)NC[C@](O)(c2cc3c(c(-c4ccc(F)c(Cl)c4)n2)OC[C@]3(C)C(N)=O)C(F)(F)F)cc2cc(C)c(Cl)nc12` [Example 1071], for which the EC50 is less than 200 nM.

Still in this assay, the particulars now being: human respiratory syncytial virus, genotype A “Long” strain RSV, MOI 0.1, CPE protection, read-out: Human RSV-A (“Long”).
In the case of `COc1cccc2[nH]nc(C(=O)NC[C@](O)(c3cc4c(c(-c5ccc(F)cc5)n3)OC[C@]4(C)C(N)=O)C(F)(F)F)c12` [Example 395], the EC50 is more than 200 nM.

In the case of `C[C@]1(C(N)=O)COc2c1cc([C@@](O)(CNC(=O)c1ccc3nc(C(N)=O)sc3c1)C(F)(F)F)nc2-c1ccc(F)cc1` [Example 130], the EC50 was less than 200 nM.

Take `COc1cccc(-n2cc(C(=O)NC[C@](O)(c3cc4c(c(-c5ccc(F)cc5)n3)OC[C@]4(C)C(N)=O)C(F)(F)F)cn2)c1` [Example 449]: the EC50 is more than 200 nM.

For `C[C@@H](O)COc1ccc(C(=O)NC[C@](O)(c2cc3c(c(-c4ccc(F)cc4)n2)OC[C@@]3(CF)C(N)=O)C(F)(F)F)cc1OC1CC1` [Example 293], the EC50 is more than 200 nM.

On to `Cc1cc2[nH]ncc2cc1C(=O)NC[C@](O)(c1cc2c(c(-c3ccc(F)cc3)n1)OC[C@]2(C)C(N)=O)C(F)(F)F` [Example 127], for which the EC50 is more than 200 nM.

Consider `Cc1nc(-c2ccccc2F)sc1C(=O)NC[C@](O)(c1cc2c(c(-c3ccc(F)cc3)n1)OC[C@]2(C)C(N)=O)C(F)(F)F` [Example 485], for which the EC50 is more than 200 nM.

`C[C@]1(C(N)=O)COc2c1cc([C@@](O)(CNC(=O)c1csc3ccccc13)C(F)(F)F)nc2-c1ccc(F)cc1` [Example 376]: the EC50 is more than 200 nM.

As for `C[C@]1(C(N)=O)COc2c1cc([C@@](O)(CNC(=O)c1cn3cc(C(F)(F)F)ccc3n1)C(F)(F)F)nc2-c1ccc(F)cc1` [Example 810], the EC50 is more than 200 nM.

Take `CCc1ccc(Nc2cc(C(=O)NC[C@](O)(c3cc4c(c(-c5ccc(F)cc5)n3)OC[C@]4(C)C(N)=O)C(F)(F)F)cc3cc(C)cnc23)nn1` [Example 117]: the EC50 was less than 200 nM.

Regarding `Cn1cccc1C(=O)NC[C@](O)(c1cc2c(c(-c3ccc(F)cc3)n1)OC[C@]2(C)C(N)=O)C(F)(F)F` [Example 425], the EC50 was more than 200 nM.

`C[C@]1(C(N)=O)COc2c1cc([C@@](O)(CNC(=O)c1cnn(-c3ccccc3)c1C(F)(F)F)C(F)(F)F)nc2-c1ccc(F)cc1` [Example 456]: the EC50 is more than 200 nM.

As to `C[C@]1(C(N)=O)COc2c1cc([C@@](O)(CNC(=O)c1cc3ccccc3s1)C(F)(F)F)nc2-c1ccc(F)cc1` [Example 368], the EC50 was more than 200 nM.

Regarding `COc1cc(C(=O)NC[C@](O)(c2cc3c(c(-c4ccc(F)cc4)n2)OCC3(C(N)=O)C(F)F)C(F)(F)F)cc2cc(Cl)c(C)nc12` (stereo partly drawn) [Example 256], the EC50 was less than 200 nM.

In the case of `C[C@]1(C(N)=O)COc2c1cc([C@@](O)(CNC(=O)c1cnc3cnccn13)C(F)(F)F)nc2-c1ccc(F)cc1` [Example 436], the EC50 is more than 200 nM.

With `CC[C@]1(C(N)=O)COc2c1cc([C@@](O)(CNC(=O)c1cc(OC)c3nn(C4CC4)cc3c1)C(F)(F)F)nc2-c1ccc(F)cc1` [Example 464], the EC50 is less than 200 nM.

For the compound `COc1ccccc1-c1nc(C(=O)NC[C@](O)(c2cc3c(c(-c4ccc(F)cc4)n2)OC[C@]3(C)C(N)=O)C(F)(F)F)c[nH]1` [Example 214], the EC50 is more than 200 nM.

With `Cc1cc(C(=O)NC[C@](O)(c2cc3c(c(-c4ccc(F)cc4)n2)OC[C@]3(C)C(N)=O)C(F)(F)F)ccn1` [Example 344], the EC50 is less than 200 nM.

Turning to `COc1ccc(C(=O)NC[C@](O)(c2cc3c(c(-c4ccc(F)cc4)n2)OC[C@]3(C)C(N)=O)C(F)(F)F)cc1C` [Example 423], the EC50 was more than 200 nM.

As to `CC[C@@]1(C(N)=O)COc2c1cc([C@@](O)(CNC(=O)c1cc(OC)c3nn(C4CC4)cc3c1)C(F)(F)F)nc2-c1ccc(F)cc1` [Example 463], the EC50 was less than 200 nM.

As to `C[C@]1(C(N)=O)COc2c1cc([C@@](O)(CNC(=O)c1cc(F)c3oc(N)nc3c1)C(F)(F)F)nc2-c1ccc(F)cc1` [Example 90], the EC50 is less than 200 nM.

Consider `C[C@]1(C(N)=O)COc2c1cc([C@@](O)(CNC(=O)c1cc(F)c3cnn(C4CC4)c3c1)C(F)(F)F)nc2-c1ccc(F)cc1` [Example 146], for which the EC50 is more than 200 nM.

`Cc1nn(-c2ccccc2)c(C)c1C(=O)NC[C@](O)(c1cc2c(c(-c3ccc(F)cc3)n1)OC[C@]2(C)C(N)=O)C(F)(F)F` [Example 453]: the EC50 was more than 200 nM.

On to `COc1cc(C(=O)NC[C@](O)(c2cc3c(c(-c4ccc(F)cc4)n2)OC[C@]3(C(N)=O)C2CC2)C(F)(F)F)cc2cn(C3CC3)nc12` [Example 281], for which the EC50 is more than 200 nM.

As for `C[C@]1(C(N)=O)COc2c1cc([C@@](O)(CNC(=O)c1cccc3[nH]ccc13)C(F)(F)F)nc2-c1ccc(F)cc1` [Example 415], the EC50 is more than 200 nM.

On to `Cc1cnc2c(Nc3ccc(F)nn3)cc(C(=O)NC[C@](O)(c3cc4c(c(-c5ccc(F)cc5)n3)OC[C@]4(C)C(N)=O)C(F)(F)F)cc2c1` [Example 119], for which the EC50 is less than 200 nM.

In the case of `C[C@]1(C(N)=O)COc2c1cc([C@@](O)(CNC(=O)c1cnc3[nH]ccc3c1Cl)C(F)(F)F)nc2-c1ccc(F)cc1` [Example 333], the EC50 is more than 200 nM.

With `COc1cc2cc(C(=O)NC[C@](O)(c3cc4c(c(-c5ccc(F)cc5)n3)OC[C@]4(C)C(N)=O)C(F)(F)F)ccc2nc1C` [Example 326], the EC50 was less than 200 nM.

Regarding `C[C@]1(C(N)=O)COc2c1cc([C@@](O)(CNC(=O)c1cnc3cccnn13)C(F)(F)F)nc2-c1ccc(F)cc1` [Example 409], the EC50 is more than 200 nM.

As to `C[C@]1(C(N)=O)COc2c1cc([C@@](O)(CNC(=O)c1cc3cccc(F)c3s1)C(F)(F)F)nc2-c1ccc(F)cc1` [Example 379], the EC50 was more than 200 nM.

`C[C@]1(C(N)=O)COc2c1cc([C@@](O)(CNC(=O)c1ccc3ncc(C(F)(F)F)cc3c1)C(F)(F)F)nc2-c1ccc(F)cc1` [Example 69]: the EC50 is less than 200 nM.

Turning to `C[C@]1(C(N)=O)COc2c1cc([C@@](O)(CNC(=O)c1cc(Cl)c3nnc(C(F)(F)F)cc3c1)C(F)(F)F)nc2-c1ccc(F)cc1` [Example 98], the EC50 was less than 200 nM.

Regarding `Cc1ccc2cc(C(=O)NC[C@](O)(c3cc4c(c(-c5ccc(F)cc5)n3)OC[C@]4(C)C(N)=O)C(F)(F)F)cc(N3CCCC3=O)c2n1` [Example 38], the EC50 is more than 200 nM.

Consider `CCn1ncc2cc(C(=O)NC[C@](O)(c3cc4c(c(-c5ccc(F)cc5)n3)OC[C@]4(C)C(N)=O)C(F)(F)F)cc(Cl)c21` [Example 172], for which the EC50 was more than 200 nM.

In the case of `COc1ccc2cc(C(=O)NC[C@](O)(c3cc4c(c(-c5ccc(F)cc5)n3)OC[C@]4(C)C(N)=O)C(F)(F)F)n(C)c2c1` [Example 336], the EC50 is more than 200 nM.
